“And” between values parts separate entries of the source, which are not always exact repeats. Equal values may be shown once.
Molecular target: Proto-oncogene tyrosine-protein kinase Src (Gallus gallus, UniProt P00523)
Assay: Tyrosine Kinase Assay
Settings: 37 °C
Source text: Takara Universal Tyrosine Assay Kit (Takara-bio co) was used to test the synthesized compounds. This assay kit determines the inhibition activities of inhibitors against a substrate of tyrosine kinase.

SMILES	IC50
O=C(OCCN(N1CCCCC1)N1CCCCC1)c1cc2ccccc2n1-c1ccccc1 [Indole ester derivative, 16]	306 µM and > 1000 µM and 279 µM
CN(C)CCOC(=O)c1cc2ccccc2n1Cc1ccccc1 [Indole ester derivative, 6]	> 500 µM and 631 µM
CCN(CC)CCOC(=O)c1cc2ccccc2n1Cc1ccccc1 [Indole ester derivative, 7]	> 1000 µM and 614 µM
CC(CN(C)C)OC(=O)c1cc2ccccc2n1Cc1ccccc1 (stereo not drawn) [Indole ester derivative, 10]	> 1000 µM
CN(C)CCOC(=O)c1cc2ccccc2n1-c1ccccc1 [Indole ester derivative, 17]	> 1000 µM
CC(CN(C)C)OC(=O)c1cc2ccccc2[nH]1 (stereo not drawn) [Indole ester derivative, 26]	> 500 µM
CCN(CC)CCOC(=O)c1cc2ccccc2[nH]1 [Indole ester derivative, 23]	> 1000 µM
O=C(OCCN(n1cccc1)n1cccc1)c1cc2ccccc2[nH]1 [Indole ester derivative, 24]	21.4 µM
O=C(OCCN(n1cccc1)n1cccc1)c1cc2ccccc2n1Cc1ccccc1 [Indole ester derivative, 8]	> 1000 µM and 215 µM
CCN(CC)CCOC(=O)c1cc2ccccc2n1-c1ccccc1 [Indole ester derivative, 18]	> 1000 µM and 817 µM
O=C(OCCN(n1cccc1)n1cccc1)c1cc2ccccc2n1-c1ccccc1 [Indole ester derivative, 19]	258 µM and > 1000 µM
O=C(OCCN(N1CCCCC1)N1CCCCC1)c1cc2ccccc2[nH]1 [Indole ester derivative, 27]	830 µM and > 500 µM
CC(CN(C)C)OC(=O)c1cc2ccccc2n1-c1ccccc1 (stereo not drawn) [Indole ester derivative, 21]	> 1000 µM
